Data on eleven molecules can be found in ChEMBL document CHEMBL1201862, “PubChem BioAssay data set” (2004).

SMILES strings stand for the structures.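 Method: 48-hour compound exposure of cells in 96-well plates, five concentrations, linear interpolation of endpoints. The concentration for 50% growth inhibition is given as GI50.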 Activity calls are given as the source filed them. Cut-off read from the data, not from the text of the source: active = GI50 up to about 1.1 µM and inactive = higher. A value given as a limit tells only on which side of the number the result lay.

Test systems include A498; CCRF-CEM; HCT-116; HOP-62; HOP-92; Hs-578T; M14; MDA-MB-231; MOLT-4; Malme-3M; NCI-H226; NCI-H460; SK-MEL-28; SK-MEL-2; SNB-19; SR; TK-10; UACC-257; UACC-62.
What all share (test): DTP human tumour cell line panel, 48 h

Turning to `O=C(O)C1=CN(c2ccncc2)C(c2ccco2)=CC1c1ccccc1[N+](=O)[O-]` (centres undefined), the GI50 (as a rule, the concentration that inhibits growth by half) was 13 µM (inactive) in the assay with A498; 2.69 µM (inactive) in the assay with CCRF-CEM; 1.96 µM (inactive) with HCT-116; 13.8 µM (inactive) in the assay with HOP-62; 11.9 µM (inactive) in the assay with HOP-92; 14.4 µM (inactive) with Hs-578T. For the same molecule, the GI50 in the assay with M14 is 10.7 µM (inactive); with MDA-MB-231, 14.6 µM (inactive); with MOLT-4 it was 3.03 µM (inactive); in the assay on Malme-3M it was 9.53 µM (inactive); in the assay with NCI-H226 it was 4.72 µM (inactive); in the assay on NCI-H460, 14.6 µM (inactive). The GI50 with SK-MEL-28 was 12.8 µM (inactive); with SK-MEL-2 it was 15.7 µM (inactive); with SNB-19 it was 12.5 µM (inactive); in the assay with SR, 1.94 µM (inactive); in the assay with TK-10 it was 6.17 µM (inactive); in the assay on UACC-257, 2.31 µM (inactive). Also, the GI50 in the assay with UACC-62 is 15.6 µM (inactive).

In the case of `COc1ccc(/C=C2\c3cc(OC)c(OC)cc3CCN2C(=O)c2ccccc2)cc1OC`, the GI50 in the assay on A498 is 35.4 µM (inactive); in the assay on CCRF-CEM, 32.3 µM (inactive); with HCT-116 it was 35.5 µM (inactive); with HOP-62, 37.2 µM (inactive); with HOP-92, > 100 µM (inactive); in the assay on Hs-578T it was 35.6 µM (inactive). Moreover, the GI50 in the assay on M14 is 58.2 µM (inactive); in the assay on MDA-MB-231 it was 45.5 µM (inactive); in the assay with MOLT-4, 25.2 µM (inactive); in the assay with Malme-3M, 22.5 µM (inactive); in the assay on NCI-H226, 37.9 µM (inactive); in the assay on NCI-H460, 28.1 µM (inactive). Further, the GI50 was 46.7 µM (inactive) in the assay on SK-MEL-28; 43.3 µM (inactive) in the assay with SK-MEL-2; > 100 µM (inactive) in the assay with SNB-19; 30.8 µM (inactive) in the assay with SR; > 100 µM (inactive) in the assay on TK-10; 86.9 µM (inactive) with UACC-257. The GI50 in the assay with UACC-62 was 36.7 µM (inactive).

Consider `O=C(NNC(=S)Nc1ccccc1)c1cc(-c2ccccc2)nc2ccccc12`, for which the GI50 with A498 is 11.5 µM (inactive); with CCRF-CEM, 12.4 µM (inactive); in the assay with HCT-116, 14.4 µM (inactive); with HOP-62 it was 15.7 µM (inactive); with HOP-92, 15.6 µM (inactive); in the assay with Hs-578T it was 25.1 µM (inactive). Also, the GI50 is 14.9 µM (inactive) with M14; 20.1 µM (inactive) in the assay with MDA-MB-231; 11.4 µM (inactive) in the assay with MOLT-4; 23.3 µM (inactive) in the assay with Malme-3M; 23.6 µM (inactive) in the assay with NCI-H226; 20.7 µM (inactive) in the assay with NCI-H460. Also, the GI50 is 16.4 µM (inactive) with SK-MEL-28; 11.1 µM (inactive) in the assay with SK-MEL-2; 22.8 µM (inactive) in the assay with SNB-19; 13.6 µM (inactive) in the assay on SR; 22 µM (inactive) in the assay on TK-10; 19.1 µM (inactive) in the assay on UACC-257. In addition, the GI50 in the assay with UACC-62 was 15.6 µM (inactive).

As for `Brc1ccc2[nH]cc(-c3csc(-c4c[nH]c5ccccc45)n3)c2c1`, the GI50 was 5.19 µM (inactive) in the assay with A498; 2.11 µM (inactive) with CCRF-CEM; 2.47 µM (inactive) in the assay on HCT-116; 4.34 µM (inactive) with HOP-62; 3 µM (inactive) with HOP-92; 4.81 µM (inactive) in the assay with Hs-578T. The GI50 in the assay on M14 is 1.98 µM (inactive); with MDA-MB-231, 2.17 µM (inactive); in the assay with MOLT-4 it was 2.05 µM (inactive); in the assay on Malme-3M, 3.03 µM (inactive); in the assay on NCI-H226, 1.82 µM (inactive); in the assay on NCI-H460, 2.61 µM (inactive). The GI50 in the assay on SK-MEL-28 is 5.06 µM (inactive); in the assay with SK-MEL-2 it was 3.17 µM (inactive); with SNB-19 it was 3.32 µM (inactive); in the assay on SR it was 3.39 µM (inactive); in the assay on TK-10 it was 3.61 µM (inactive); in the assay with UACC-257, 5.07 µM (inactive). The GI50 in the assay with UACC-62 was 5.5 µM (inactive).

For the molecule `CN(NC1=NCCO1)c1ccc2ccccc2c1`, the GI50 with A498 is 44.3 µM (inactive); in the assay on CCRF-CEM, 17.2 µM (inactive); in the assay on HCT-116 it was 35 µM (inactive); in the assay with HOP-62 it was 80.7 µM (inactive); in the assay on HOP-92, 13.6 µM (inactive); in the assay on Hs-578T, 35.2 µM (inactive). The GI50 in the assay on M14 was 36 µM (inactive); in the assay with MDA-MB-231, 26.3 µM (inactive); with MOLT-4, 42.2 µM (inactive); with Malme-3M, 36.2 µM (inactive); in the assay with NCI-H226, 34.1 µM (inactive); in the assay on NCI-H460, 27.2 µM (inactive). In addition, the GI50 was 70.3 µM (inactive) in the assay with SK-MEL-28; 27.8 µM (inactive) with SK-MEL-2; 54.7 µM (inactive) in the assay with SNB-19; 39.6 µM (inactive) with SR; > 100 µM (inactive) in the assay on TK-10; 65 µM (inactive) with UACC-257. In addition, the GI50 in the assay with UACC-62 is 49.1 µM (inactive).

Take `O=C1NC(c2ccccc2Cl)Nc2ccccc21` (centres undefined): the GI50 in the assay on A498 is 30.8 µM (inactive); with CCRF-CEM, 11.4 µM (inactive); in the assay with HCT-116 it was 7.24 µM (inactive); in the assay with HOP-62, 35.4 µM (inactive); with HOP-92, 44.4 µM (inactive); in the assay on Hs-578T, 9.53 µM (inactive). In addition, the GI50 in the assay with M14 was 10.5 µM (inactive); in the assay with MDA-MB-231, 33.2 µM (inactive); in the assay on MOLT-4, 8.77 µM (inactive); in the assay with Malme-3M, 12.3 µM (inactive); in the assay with NCI-H226, 41.8 µM (inactive); in the assay with NCI-H460, 13.9 µM (inactive). Besides, the GI50 with SK-MEL-28 was 24.1 µM (inactive); in the assay on SK-MEL-2, 6.7 µM (inactive); with SNB-19, 15.1 µM (inactive); with SR, 4.07 µM (inactive); in the assay on TK-10 it was > 53.1 µM (inactive); in the assay with UACC-257, > 100 µM (inactive). Further, the GI50 in the assay on UACC-62 was 7.14 µM (inactive).

As to `OC(NN=C1CCCC1)(C(F)(F)Cl)C(F)(F)Cl`, the GI50 in the assay with A498, in the assay on CCRF-CEM, in the assay with HCT-116, in the assay on HOP-62, in the assay with HOP-92 and in the assay on Hs-578T was > 10 µM (inactive) each time. The GI50 with M14, with MDA-MB-231, with MOLT-4, in the assay on Malme-3M, in the assay with NCI-H226 and in the assay with NCI-H460 was > 10 µM (inactive) in each case. The GI50 in the assay on SK-MEL-28, in the assay with SK-MEL-2, in the assay on SNB-19, with SR, in the assay on TK-10 and in the assay on UACC-257 was > 10 µM (inactive) each time. Moreover, the GI50 with UACC-62 was > 10 µM (inactive).

For the molecule `CN(CC(=O)O)c1ncc2c(n1)-c1ccccc1CC2`, the GI50 with A498, with CCRF-CEM, with HCT-116, in the assay on HOP-62, in the assay with HOP-92 and in the assay on Hs-578T was > 100 µM (inactive) throughout. Also, the GI50 in the assay with M14, with MDA-MB-231, in the assay on MOLT-4, with Malme-3M, in the assay with NCI-H226 and in the assay on NCI-H460 was > 100 µM (inactive) throughout. For the same molecule, the GI50 with SK-MEL-28, in the assay on SK-MEL-2, in the assay with SNB-19, in the assay on SR, in the assay on TK-10 and in the assay on UACC-257 was > 100 µM (inactive) throughout. Also, the GI50 in the assay on UACC-62 was > 100 µM (inactive).

As for `CN(C)CCCn1c2ccccc2c2cnccc21`, the GI50 was 38.5 µM (inactive) with A498; 45.7 µM (inactive) in the assay on CCRF-CEM; 19.7 µM (inactive) in the assay on HCT-116; 60.4 µM (inactive) in the assay on HOP-62; 94.6 µM (inactive) in the assay with HOP-92; 42.7 µM (inactive) in the assay on Hs-578T. In addition, the GI50 was 16.6 µM (inactive) with M14; 30.8 µM (inactive) in the assay with MDA-MB-231; 24.4 µM (inactive) with MOLT-4; 28.6 µM (inactive) with Malme-3M; 24.1 µM (inactive) in the assay with NCI-H226; 23.9 µM (inactive) in the assay on NCI-H460. Moreover, the GI50 was 48.9 µM (inactive) in the assay on SK-MEL-28; 45.5 µM (inactive) in the assay with SK-MEL-2; 44.9 µM (inactive) in the assay on SNB-19; 19.2 µM (inactive) with SR; 26.8 µM (inactive) in the assay with TK-10; 18.7 µM (inactive) in the assay with UACC-257. Moreover, the GI50 in the assay on UACC-62 was 40.4 µM (inactive).

Take `C[C@@]12C[C@@H](c3ccccc3O1)N1CCCSC1=N2`: the GI50 with A498, in the assay with CCRF-CEM, in the assay on HCT-116, with HOP-62, with HOP-92 and in the assay on Hs-578T was > 100 µM (inactive) throughout. Further, the GI50 with M14, with MDA-MB-231, in the assay on MOLT-4, in the assay with Malme-3M, with NCI-H226 and in the assay with NCI-H460 was > 100 µM (inactive) throughout. Also, the GI50 with SK-MEL-28, in the assay with SK-MEL-2, with SNB-19, in the assay with SR, in the assay with TK-10 and in the assay with UACC-257 was > 100 µM (inactive) throughout. For the same molecule, in the assay with UACC-62, the GI50 is > 100 µM (inactive).

For the molecule `COc1cccc2cc(C(=O)Nc3ccccn3)c(=N)oc12`, the GI50 in the assay on A498 is > 100 µM (inactive); in the assay with CCRF-CEM it was 22.8 µM (inactive); in the assay on HCT-116, 83.2 µM (inactive); with HOP-62, 82.8 µM (inactive); in the assay with HOP-92, > 100 µM (inactive); in the assay with Hs-578T it was 55.7 µM (inactive). The GI50 in the assay with M14 was 72.8 µM (inactive); in the assay on MDA-MB-231, 63 µM (inactive); in the assay on MOLT-4, 0.501 µM (active); with Malme-3M it was 50.9 µM (inactive); in the assay with NCI-H226, > 100 µM (inactive); in the assay with NCI-H460, > 100 µM (inactive). Further, the GI50 with SK-MEL-28 is > 100 µM (inactive); in the assay on SK-MEL-2, 33.6 µM (inactive); in the assay on SNB-19 it was > 100 µM (inactive); in the assay on SR it was 2.43 µM (inactive); in the assay on TK-10 it was > 100 µM (inactive); in the assay with UACC-257, > 100 µM (inactive). Moreover, the GI50 with UACC-62 was 64.4 µM (inactive).
